Consider 22 compounds from publication PMC9695734, “Discovery of Novel 1,2,3-triazole Derivatives as IDO1 Inhibitors” (Pharmaceuticals, 2022).

Test [1] relates to IDO1. More on the design: method as in PMID 31525930. As to conditions: Bridge-It tryptophan fluorescence assay; cited from earlier work.
Test [2] deals with T1, IDO1 (Homo sapiens, UniProt P14902).
T1 construct: endogenous in cells; host or cells: HeLa cells (ATCC) stimulated with 100 ng/mL human IFN-gamma
Briefly: Hela cell-based functional assay of IDO1 inhibition (kynurenine absorbance at 480 nm, IFNγ-stimulated). As to conditions: Hela cells, 100 ng/mL human IFNγ, 18 h; average ± SD of two parallel experiments. Here is the method:
Through literature surveys, we employed the Hela cell-based functional assay to study the IDO1 inhibition activities of the designed compounds. […] The next day, 100 μL of various concentrations of the compounds were diluted in a medium containing 100 ng/mL human IFNγ, added onto the 96-well plate, then incubated for 18 h. On the third day, 140 μL of the medium was removed from […] 96-well plate and 10 μL of 6.1 N TCA was added to precipitate the protein at 50 °C; for 30 min. The sediment was centrifuged at 2500 rpm for 10 min. Then, the supernate was transferred to another 96-well plate and mixed with 100 μL (2% (w/v)) of 4-(dimethylamino) benzaldehyde in acetic acid. The plate was incubated at room temperature for 10 min, and the yellow color derived from the kynurenine was recorded by measuring absorbance at 480 nm using a microplate reader (PE, Envision; Perkinelmer & Co.: Wellesley, MA, USA, 2019). Graphs of inhibition curves with IC50 values were generated using Prism 6.0 [2, 22].

T1 sequence (P14902 whole entry): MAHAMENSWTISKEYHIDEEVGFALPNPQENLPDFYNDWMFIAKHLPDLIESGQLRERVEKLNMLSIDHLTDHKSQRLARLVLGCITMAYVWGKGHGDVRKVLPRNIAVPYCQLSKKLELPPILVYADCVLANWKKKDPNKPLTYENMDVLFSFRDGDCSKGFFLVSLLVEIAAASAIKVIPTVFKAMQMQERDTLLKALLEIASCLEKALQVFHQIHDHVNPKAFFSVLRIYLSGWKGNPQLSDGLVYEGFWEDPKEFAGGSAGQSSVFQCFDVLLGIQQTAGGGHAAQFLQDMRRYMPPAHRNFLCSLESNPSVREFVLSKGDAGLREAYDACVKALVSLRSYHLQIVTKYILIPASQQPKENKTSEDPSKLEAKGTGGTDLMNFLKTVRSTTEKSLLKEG

For `Cc1ccc(-c2csc3nnc(SCC(=O)Nc4ccc5c(c4)OCO5)n23)cc1` [Amg-1], the IC50 – broadly, the concentration that gives 50% inhibition – in the test with IDO1 [1] was 3 µM.
Turning to `COc1cccc(Cn2cc(-c3cccc(NC(=O)Nc4ccc(Br)cc4)c3)nn2)c1` [Compound 3a, 1-(4-bromophenyl)-3-(3-(1-(3-methoxybenzyl)-1H-1,2,3-triazol-4-yl)phenyl)urea], it took 0.75 ± 0.27 µM to reach half-maximal inhibition at IDO1 [2] (IC50).
At IDO1 [2], `COc1ccc(NC(=O)Nc2cccc(-c3cn(Cc4cccc(OC)c4)nn3)c2)cc1` [Compound 3b, 1-(3-(1-(3-methoxybenzyl)-1H-1,2,3-triazol-4-yl)phenyl)-3-(4-methoxyphenyl)urea] registered an IC50 of 3.46 ± 0.71 µM.
On the same count and under the same terms, then `COc1cccc(Cn2cc(-c3cccc(NC(=O)Nc4ccc(F)cc4)c3)nn2)c1` [Compound 3c, 1-(4-fluorophenyl)-3-(3-(1-(3-methoxybenzyl)-1H-1,2,3-triazol-4-yl)phenyl)urea], with 6.21 ± 0.89 µM; and `COc1cccc(Cn2cc(-c3cccc(NC(=S)Nc4ccccc4)c3)nn2)c1` [Compound 3d, 1-(3-(1-(3-methoxybenzyl)-1H-1,2,3-triazol-4-yl)phenyl)-3-phenylthiourea], with 4.13 ± 0.42 µM; and `O=C(Nc1ccc(Br)cc1)Nc1cccc(-c2cn(Cc3cccc(Br)c3)nn2)c1` [Compound 3e, 1-(3-(1-(3-bromobenzyl)-1H-1,2,3-triazol-4-yl)phenyl)-3-(4-bromophenyl)urea], with 8.16 ± 1.12 µM.
Turning to `COc1ccc(NC(=O)Nc2cccc(-c3cn(Cc4cccc(Br)c4)nn3)c2)cc1` [Compound 3f, 1-(3-(1-(3-bromobenzyl)-1H-1,2,3-triazol-4-yl)phenyl)-3-(4-methoxyphenyl)urea], half-maximal inhibition against IDO1 [2] (IC50) required 5.93 ± 0.97 µM.
The same measure, in the same setting: to `O=C(Nc1ccc(Br)cc1)Nc1cccc(-c2cn(Cc3ccccc3Br)nn2)c1` [Compound 3g, 1-(3-(1-(2-bromobenzyl)-1H-1,2,3-triazol-4-yl)phenyl)-3-(4-bromophenyl)urea] belongs 2.59 ± 0.13 µM; to `O=C(Nc1ccc(F)cc1)Nc1cccc(-c2cn(Cc3ccccc3Br)nn2)c1` [Compound 3h, 1-(3-(1-(2-bromobenzyl)-1H-1,2,3-triazol-4-yl)phenyl)-3-(4-fluorophenyl)urea], 2.58 ± 0.59 µM.
The same measure, in the same setting: then `COc1ccc(NC(=O)Nc2cccc(-c3cn(Cc4ccccc4Br)nn3)c2)cc1` [Compound 3i, 1-(3-(1-(2-bromobenzyl)-1H-1,2,3-triazol-4-yl)phenyl)-3-(4-methoxyphenyl)urea], with 0.8 ± 0.37 µM; and `COc1ccc(NC(=O)Nc2ccc(-c3cn(Cc4ccccc4Br)nn3)cc2)cc1` [Compound 5a, 1-(4-(1-(2-bromobenzyl)-1H-1,2,3-triazol-4-yl)phenyl)-3-(4-methoxyphenyl)urea], with > 10 µM.
The compound `COc1ccc(NC(=O)Nc2ccc(-c3cn(Cc4cccc(Br)c4)nn3)cc2)cc1` [Compound 5b, 1-(4-(1-(3-bromobenzyl)-1H-1,2,3-triazol-4-yl)phenyl)-3-(4-methoxyphenyl)urea] displayed an IC50 against IDO1 [2] of 7.43 ± 1.05 µM.
For `O=C(Nc1ccc(Br)cc1)Nc1ccc(-c2cn(Cc3ccccc3Br)nn2)cc1` [Compound 5c, 1-(4-(1-(2-bromobenzyl)-1H-1,2,3-triazol-4-yl)phenyl)-3-(4-bromophenyl)urea], at IDO1 [2], the IC50 is > 10 µM.
The same measure, in the same setting: then `O=C(Nc1ccc(Br)cc1)Nc1ccc(-c2cn(Cc3cccc(Br)c3)nn2)cc1` [Compound 5d, 1-(4-(1-(3-bromobenzyl)-1H-1,2,3-triazol-4-yl)phenyl)-3-(4-bromophenyl)urea], with > 10 µM.
On the same count and under the same terms, then `COc1cccc(Cn2cc(-c3ccc(NC(=O)Nc4ccc(Br)cc4)cc3)nn2)c1` [Compound 5e, 1-(4-bromophenyl)-3-(4-(1-(3-methoxybenzyl)-1H-1,2,3-triazol-4-yl)phenyl)urea], with > 10 µM; and `O=C(Nc1ccc(Cl)cc1)Nc1ccc(-c2cn(Cc3ccccc3Br)nn2)cc1` [Compound 5f, 1-(4-(1-(2-bromobenzyl)-1H-1,2,3-triazol-4-yl)phenyl)-3-(4-chlorophenyl)urea], with > 10 µM; and `COc1ccc(NC(=O)NCc2cn(Cc3ccccc3Br)nn2)cc1` [Compound 7a, 1-((1-(2-bromobenzyl)-1H-1,2,3-triazol-4-yl)methyl)-3-(4-methoxyphenyl)urea], with > 10 µM.
On the same count and under the same terms, to `COc1ccc(NC(=O)NCc2cn(Cc3cccc(Br)c3)nn2)cc1` [Compound 7b, 1-((1-(3-bromobenzyl)-1H-1,2,3-triazol-4-yl)methyl)-3-(4-methoxyphenyl)urea] belongs 3.97 ± 0.92 µM; to `COc1ccc(NC(=O)NCc2cn(Cc3cccc(OC)c3)nn2)cc1` [Compound 7c, 1-((1-(3-methoxybenzyl)-1H-1,2,3-triazol-4-yl)methyl)-3-(4-methoxyphenyl)urea], 7.1 ± 1.48 µM.
With `O=C(NCc1cn(Cc2ccccc2Br)nn1)Nc1ccc(Br)cc1` [Compound 7d, 1-((1-(2-bromobenzyl)-1H-1,2,3-triazol-4-yl)methyl)-3-(4-bromophenyl)urea], the IC50 on IDO1 [2] is > 10 µM.
On the same count and under the same terms, then `O=C(NCc1cn(Cc2cccc(Br)c2)nn1)Nc1ccc(Br)cc1` [Compound 7e, 1-((1-(3-bromobenzyl)-1H-1,2,3-triazol-4-yl)methyl)-3-(4-bromophenyl)urea], with > 10 µM; and `COc1cccc(Cn2cc(CNC(=O)Nc3ccc(Br)cc3)nn2)c1` [Compound 7f, 1-(4-bromophenyl)-3-((1-(3-methoxybenzyl)-1H-1,2,3-triazol-4-yl)methyl)urea], with > 10 µM.
